Data: US20220007644A1, “COMPOSITIONS COMPRISING PYRIDINE CARBOXYLATE HERBICIDES WITH PHOTOSYSTEM II AND OPTIONAL HPPD INHIBITOR HERBICIDES” (Corteva Agriscience LLC, priority 2018, published 2022)

Assays:
Type in all cases: in vivo
[1] = tested on: TRZAS, Triticum aestivum (spring wheat); assay: Greenhouse postemergence phytotoxicity on crop (visual injury, 20-22 d)
Text: (§1) Greenhouse Trial Methodology—Evaluation of Postemergence Herbicidal Effect
(§2) Seeds of the desired test plant species were planted in a 90:10% v/v (volume/volume) mixture of PRO-MIX® BX (Premier Tech Horticulture, Quakertown, Pa., USA) and PROFILE®GREENS GRADE™ (Profile Products LLC, Buffalo Grove, Ill., USA) planting mixture, which typically has a pH of 5.2 to 6.2 and an organic matter content of at least 50 percent, in plastic pots with a surface area of 103.2 square centimeters (cm^2). In some aspects, to help ensure good germination and healthy plants, a fungicide treatment and/or other chemical or physical treatment was applied. The plants were grown for 7-36 days (d) in a greenhouse with an approximate 14-hour (h) photoperiod which was maintained at about 23° C. during the day and 22° C. during the night. Nutrients and water were added on a regular basis and supplemental lighting was provided with overhead metal halide 1000-Watt lamps as necessary. The plants were employed for testing when they reached the second or third true leaf stage.
(§3) Emulsifiable concentrates of each of each pyridine carboxylate herbicide (Compound A or Compound B) were prepared at 100 grams acid equivalent per liter (g ae/L). The emulsifiable concentrates also included a safener, cloquintocet-mexyl, at 120 grams active ingredient per liter (g ai/L), unless otherwise noted below. An aliquot of each emulsifiable concentrate was placed in a 25 mL glass vial and diluted with an aqueous mixture of 1.25% (v/v) ACTIROB® B esterified rapeseed oil (Bayer Crop Science, Research Triangle Park, N.C., USA) or MSO® Concentrate with LECI-TECH® methylated soybean oil (Loveland Products, Loveland, Colo., USA) to obtain concentrated stock solutions at the highest application rate for each herbicide, based upon a 12 milliliter (mL) application volume at a rate of 187 liters per hectare (L/ha). The concentrated stock solutions were further diluted with an aqueous mixture of 1.25% v/v ACTIROB® B or MSO® Concentrate with LECI-TECH® to obtain stock solutions at reduced application rates for each herbicide. Spray solutions of the herbicide combinations (Compound A or Compound B plus PS-II herbicide and optional HPPD herbicide) were prepared by adding weighed amounts or aliquots of the PS-II herbicide and optional HPPD herbicide to the stock solutions of Compound A or Compound B to form 12-mL spray solutions in two- or three-way combinations.
(§4) The spray solutions were applied to the plant material with an overhead Mandel track sprayer equipped with 8002E nozzles calibrated to deliver 187 L/ha over an application area of 0.503 square meters (m^2) at a spray height of 18 inches ([…] centimeters (cm)) above the average plant canopy. Control plants were sprayed in the same manner with the solvent blank. All pyridine carboxylate herbicide (component a) application rates are given as “g ae/ha” and all PS II inhibitor herbicide (component b) and HPPD inhibitor herbicide (component c) application rates are given as “g ai/ha.”
(§5) The treated plants and control plants were placed in a greenhouse as described above and watered by sub-irrigation to prevent wash-off of the test compounds. After 20-22 d, the condition of the test plants as compared with that of the control plants was determined visually and scored on a scale of 0 to 100 percent where 0 corresponds to no injury and 100 corresponds to complete kill.

[2] = tested on: HORVS, Hordeum vulgare (spring barley); assay: as above
Text: as §1, §2, §3, §4, §5

[3] = tested on: SINAR, Sinapis arvensis (wild mustard); assay: Greenhouse postemergence herbicidal effect (visual injury, 20-22 d)
Text: as §1, §2, §3, §4, §5

[4] = tested on: POLCO, Polygonum convolvulus (wild buckwheat); assay: as above
Text: as §1, §2, §3, §4, §5

[5] = tested on: BRSNN, Brassica napus (spring rape); assay: as above
Text: as §1, §2, §3, §4, §5

[6] = tested on: CHEAL, Chenopodium album L. (common lambsquarters); assay: as above
Text: as §1, §2, §3, §4, §5

[7] = tested on: SASKR, Salsola kali (Russian thistle); assay: as above
Text: as §1, §2, §3, §4, §5

[8] = tested on: KCHSC, Kochia scoparia (kochia); assay: as above
Text: as §1, §2, §3, §4, §5

[9] = tested on: CIRAR, Cirsium arvense (Canada thistle); assay: as above
Text: as §1, §2, §3, §4, §5

[10] = tested on: AMARE, Amaranthus retroflexus (pigweed); assay: as above
Text: as §1, §2, §3, §4, §5

[11] = tested on: MATCH, Matricaria chamomilla (wild chamomile); assay: as above
Text: as §1, §2, §3, §4, §5

[12] = tested on: BRSNW, Brassica napus (winter rape); assay: as above
Text: as §1, §2, §3, §4, §5

[13] = tested on: AVEFA, Avena fatua (wild oat); assay: as above; conditions: 450 g ai/ha alone
Text: as §1, §2, §3, §4, §5

[14] = tested on: VIOTR, Viola tricolor (wild pansy); assay: as above; conditions: 450 g ai/ha alone
Text: as §1, §2, §3, §4, §5

[15] = tested on: ALOMY, Alopecurus myosuroides (blackgrass); assay: as above; conditions: 450 g ai/ha alone
Text: as §1, §2, §3, §4, §5

[16] = tested on: SORVU, Sorghum vulgare (grain sorghum); assay: as above; conditions: 5 g ai/ha alone
Text: as §1, §2, §3, §4, §5

[17] = tested on: GLXMA, Glycine max (soybean); assay: as above; conditions: 5 g ai/ha alone
Text: as §1, §2, §3, §4, §5

[18] = tested on: IPOHE, Ipomoea hederacea (ivyleaf morningglory); assay: as above; conditions: 5 g ai/ha alone
Text: as §1, §2, §3, §4, §5

[19] = tested on: ABUTH, Abutilon theophrasti (velvetleaf); assay: as above; conditions: 5 g ai/ha alone
Text: as §1, §2, §3, §4, §5

[20] = Fallopia convolvulus, post-emergence, read-out: visual injury Obs

CCCCCCCCSC(=O)Oc1cc(Cl)nnc1-c1ccccc1 [Pyridate, O-6-chloro-3-phenylpyridazin-4-yl S-octyl thiocarbonate]
visual injury Obs ([1]; 125 g ai/ha alone): 0% | visual injury Obs ([2]; 125 g ai/ha alone): 5% | visual injury Obs ([3]; 125 g ai/ha alone): 0% | pest or weed control at 125 g/ha ([4]; Fallopia convolvulus, post-emergence, 125 g ai/ha alone, read-out: visual injury Obs): 0% | visual injury Obs ([5]; 125 g ai/ha alone): 15% | visual injury Obs ([6]; 125 g ai/ha alone): 0% | visual injury Obs ([7]; 125 g ai/ha alone): 0% | visual injury Obs ([8]; 125 g ai/ha alone): 0%

CCC(C)n1c(=O)[nH]c(C)c(Br)c1=O (stereo not shown) [Bromacil, 5-bromo-3-sec-butyl-6-methyluracil]
visual injury Obs ([1]; 900 g ai/ha alone): 0% | visual injury Obs ([2]; 900 g ai/ha alone): 10% | visual injury Obs ([9]; 900 g ai/ha alone): 18% | visual injury Obs ([3]; 900 g ai/ha alone): 35% | pest or weed control at 900 g/ha [4, 20]: 10% | visual injury Obs ([10]; 900 g ai/ha alone): 20% | visual injury Obs ([6]; 900 g ai/ha alone): 53% | visual injury Obs ([7]; 900 g ai/ha alone): 25% | visual injury Obs ([8]; 900 g ai/ha alone): 91% | visual injury Obs ([11]; 900 g ai/ha alone): 5% | visual injury Obs ([12]; 900 g ai/ha alone): 5%

CC(C)N1C(=O)c2ccccc2NS1(=O)=O [Bentazone, 3-isopropyl-1H-2,1,3-benzothiadiazin-4(3H)-one 2,2-dioxide]
visual injury Obs ([1]; 51.5 g ai/ha alone): 0% | visual injury Obs ([2]; 51.5 g ai/ha alone): 0% | pest or weed control at 51.5 g/ha ([4]; Fallopia convolvulus, post-emergence, 51.5 g ai/ha alone, read-out: visual injury Obs): 20% | visual injury Obs ([5]; 51.5 g ai/ha alone): 30%

CSc1nnc(C(C)(C)C)c(=O)n1N [Metribuzin, 4-amino-6-tert-butyl-3-methythio-1,2,4-triazin-5(4H)-one]
visual injury ([1]; 25 g ai/ha alone): 0% | visual injury ([2]; 25 g ai/ha alone): 0% | visual injury ([9]; 25 g ai/ha alone): 3% | visual injury ([3]; 25 g ai/ha alone): 18% | visual injury ([4]; 25 g ai/ha alone): 0% | visual injury ([10]; 25 g ai/ha alone): 0% | visual injury ([6]; 25 g ai/ha alone): 3% | visual injury ([7]; 25 g ai/ha alone): 0% | visual injury ([8]; 25 g ai/ha alone): 0% | visual injury ([11]; 25 g ai/ha alone): 0% | visual injury ([12]; 25 g ai/ha alone): 0%

CN(C)C(=O)Nc1ccc(Cl)c(Cl)c1 [Diuron, 3-(3,4-dichlorophenyl)-1,1-dimethylurea]
visual injury Obs ([1]; 220 g ai/ha alone): 0% | visual injury Obs ([2]; 220 g ai/ha alone): 10% | visual injury Obs ([9]; 220 g ai/ha alone): 40% | visual injury Obs ([3]; 220 g ai/ha alone): 5% | pest or weed control at 220 g/ha [4, 20]: 5% | visual injury Obs ([10]; 220 g ai/ha alone): 98% | visual injury Obs ([6]; 220 g ai/ha alone): 100% | visual injury Obs ([7]; 220 g ai/ha alone): 40% | visual injury Obs ([8]; 220 g ai/ha alone): 90% | visual injury Obs ([11]; 220 g ai/ha alone): 15% | visual injury Obs ([12]; 220 g ai/ha alone): 5%

CCNc1nc(Cl)nc(NC(C)C)n1 [Atrazine, 6-chloro-N^2-ethyl-N^4-isopropyl-1,3,5-triazine-2,4-diamine, reference compound]
visual injury Obs [13]: 13% | visual injury Obs ([5]; 450 g ai/ha alone): 28% | visual injury Obs [14]: 20% | visual injury Obs [15]: 25%

CC(C)c1nn(C(=O)NC(C)(C)C)c(=O)n1N [Amicarbazone, 4-amino-N-tert-butyl-4,5-dihydro-3-isopropyl-5-oxo-1H-1,2,4-triazole-1-carboxamide]
visual injury Obs ([3]; 175 g ai/ha alone): 25% | pest or weed control at 175 g/ha ([4]; Fallopia convolvulus, post-emergence, 175 g ai/ha alone, read-out: visual injury Obs): 10% | visual injury Obs ([5]; 175 g ai/ha alone): 38% | visual injury Obs ([6]; 175 g ai/ha alone): 38% | visual injury Obs ([7]; 175 g ai/ha alone): 0% | visual injury Obs ([8]; 175 g ai/ha alone): 25%

CCC(=O)Nc1ccc(Cl)c(Cl)c1 [Propanil, 3′,4′-dichloropropionanilide, reference compound]
visual injury Obs ([9]; 5 g ai/ha alone): 28% | visual injury Obs [16]: 15% | visual injury Obs [17]: 23% | visual injury Obs [18]: 38% | pest or weed control at 5 g/ha ([4]; Fallopia convolvulus, post-emergence, 5 g ai/ha alone, read-out: visual injury Obs): 20% | visual injury Obs [19]: 10%

CCOC(=O)Nc1cccc(OC(=O)Nc2ccccc2)c1 [Desmedipham, 3-ethoxycarbonylaminophenyl phenylcarbamate]
visual injury Obs ([1]; 162.5 g ai/ha alone): 0% | visual injury Obs ([2]; 162.5 g ai/ha alone): 0% | visual injury Obs ([9]; 162.5 g ai/ha alone): 10% | visual injury Obs ([3]; 162.5 g ai/ha alone): 0% | pest or weed control at 162.5 g/ha [4, 20]: 0% | visual injury Obs ([10]; 162.5 g ai/ha alone): 15% | visual injury Obs ([6]; 162.5 g ai/ha alone): 0% | visual injury Obs ([7]; 162.5 g ai/ha alone): 0% | visual injury Obs ([8]; 162.5 g ai/ha alone): 0% | visual injury Obs ([11]; 162.5 g ai/ha alone): 0% | visual injury Obs ([12]; 162.5 g ai/ha alone): 0%

CNC(=O)N(C)c1nnc(C(C)(C)C)s1 [Tebuthiuron, 1-(5-tert-butyl-1,3,4-thiadiazol-2-yl)-1,3-dimethylurea, reference compound]
visual injury Obs ([1]; 280 g ai/ha alone): 0% | visual injury Obs ([2]; 280 g ai/ha alone): 28% | visual injury Obs ([9]; 280 g ai/ha alone): 40% | visual injury Obs ([3]; 280 g ai/ha alone): 35% | pest or weed control at 280 g/ha [4, 20]: 40% | visual injury Obs ([10]; 280 g ai/ha alone): 88% | visual injury Obs ([6]; 280 g ai/ha alone): 98% | visual injury Obs ([8]; 280 g ai/ha alone): 23% | visual injury Obs ([11]; 280 g ai/ha alone): 25% | visual injury Obs ([12]; 280 g ai/ha alone): 45%
